# Source: ChEMBL document CHEMBL1131918, “Quantitative analysis of the kinetics of phospholipase A2 using fast atom bombardment mass spectrometry” (Bioorg Med Chem Lett, 1999)
# How the values were obtained:
# phospholipase A2 = test: Michaelis -Menten constant against phospholipase A2 was determined; format: ADME; conditions: phospholipase A2 enzyme
# [1] = Catalytic rate constant against phospholipase A2 was determined; format: ADME
SMILES,Km (phospholipase A2) [µM],k cat [1] [µM/min/mg]
CCCCCCCCCC(=O)OCC(COP(=O)([O-])OCC[N+](C)(C)C)OC(=O)CCCCCCCCC (centres undefined),2400,1.06
CCCCCCCCCC(=O)OCC(O)COP(=O)([O-])OCC[N+](C)(C)C (centres undefined),2300,1.03
